Reference: ChEMBL document CHEMBL5303573, “Mapping human microbiome drug metabolism by gut bacteria and their genes” (Nature, 2019)

Assays:
[1] = The drug is tested on Ruminococcus torques strain: ATCC27756 for biotransformation. The drug concentrations were measured before and after a 12-h incubation by liquid-chromatography-coupled mass spectrometry (LC–MS); type: ADME; set-up: dose 2 uM, timepoint 0 vs 12 hours; settings: 2 µM
[2] = bacteroides thetaiotaomicron, 12 h, 2 µM
Description: The drug is tested on Bacteroides thetaiotaomicron strain: 7330 for biotransformation. The drug concentrations were measured before and after a 12-h incubation by liquid-chromatography-coupled mass spectrometry (LC–MS)

[3] = The drug is tested on Bacteroides vulgatus strain: ATCC8482 for biotransformation. The drug concentrations were measured before and after a 12-h incubation by liquid-chromatography-coupled mass spectrometry (LC–MS); settings: phocaeicola vulgatus, 2 µM
[4] = The drug is tested on Ruminococcus lactaris strain: ATCC29176 for biotransformation. The drug concentrations were measured before and after a 12-h incubation by liquid-chromatography-coupled mass spectrometry (LC–MS); settings: 2 µM
[5] = The drug is tested on Bifidobacterium longum subsp. Infantis strain: CCUG52486 for biotransformation. The drug concentrations were measured before and after a 12-h incubation by liquid-chromatography-coupled mass spectrometry (LC–MS); settings: 2 µM
[6] = The drug is tested on Bacteroides dorei strain: DSM17855 for biotransformation. The drug concentrations were measured before and after a 12-h incubation by liquid-chromatography-coupled mass spectrometry (LC–MS); settings: phocaeicola dorei, 2 µM
[7] = akkermansia muciniphila, 12 h, 2 µM
Description: The drug is tested on Akkermansia muciniphila strain: ATCC BAA-835 for biotransformation. The drug concentrations were measured before and after a 12-h incubation by liquid-chromatography-coupled mass spectrometry (LC–MS)

[8] = roseburia intestinalis, 12 h, 2 µM
Description: The drug is tested on Roseburia intestinalis strain: L1-82 for biotransformation. The drug concentrations were measured before and after a 12-h incubation by liquid-chromatography-coupled mass spectrometry (LC–MS)

[9] = bacteroides stercoris, 12 h, 2 µM
Description: The drug is tested on Bacteroides stercoris strain: ATCC43183 for biotransformation. The drug concentrations were measured before and after a 12-h incubation by liquid-chromatography-coupled mass spectrometry (LC–MS)

[10] = bifidobacterium adolescentis, 12 h, 2 µM
Description: The drug is tested on Bifidobacterium adolescentis strain: ATCC 15703 for biotransformation. The drug concentrations were measured before and after a 12-h incubation by liquid-chromatography-coupled mass spectrometry (LC–MS)

[11] = The drug is tested on Bacteroides finegoldii strain: DSM17565 for biotransformation. The drug concentrations were measured before and after a 12-h incubation by liquid-chromatography-coupled mass spectrometry (LC–MS); settings: 2 µM
[12] = The drug is tested on Bacteroides fragilis strain: HMW610 for biotransformation. The drug concentrations were measured before and after a 12-h incubation by liquid-chromatography-coupled mass spectrometry (LC–MS); settings: 2 µM
[13] = The drug is tested on Providencia rettgeri strain: DSM1131 for biotransformation. The drug concentrations were measured before and after a 12-h incubation by liquid-chromatography-coupled mass spectrometry (LC–MS); type: ADME; set-up: dose 2 uM, timepoint 0 vs 12 hours; settings: 2 µM
[14] = bacteroides eggerthii, 12 h, 2 µM
Description: The drug is tested on Bacteroides eggerthii strain: DSM20697 for biotransformation. The drug concentrations were measured before and after a 12-h incubation by liquid-chromatography-coupled mass spectrometry (LC–MS)

[15] = bacteroides intestinalis, 12 h, 2 µM
Description: The drug is tested on Bacteroides intestinalis strain: DSM17393 for biotransformation. The drug concentrations were measured before and after a 12-h incubation by liquid-chromatography-coupled mass spectrometry (LC–MS)

[16] = The drug is tested on Clostridium symbiosum strain: ATCC14940 for biotransformation. The drug concentrations were measured before and after a 12-h incubation by liquid-chromatography-coupled mass spectrometry (LC–MS); settings: 2 µM
[17] = The drug is tested on Bifidobacterium ruminantium strain: fecal isolate for biotransformation. The drug concentrations were measured before and after a 12-h incubation by liquid-chromatography-coupled mass spectrometry (LC–MS); settings: 2 µM
[18] = The drug is tested on Bacteroides fragilis strain: ATCC43859 for biotransformation. The drug concentrations were measured before and after a 12-h incubation by liquid-chromatography-coupled mass spectrometry (LC–MS); settings: 2 µM
[19] = The drug is tested on Bacteroides uniformis strain: ATCC8492 for biotransformation. The drug concentrations were measured before and after a 12-h incubation by liquid-chromatography-coupled mass spectrometry (LC–MS); settings: 2 µM

SMILES | Bacterial Biotransformation [1] | Bacterial Biotransformation [2] | Bacterial Biotransformation [3] | Bacterial Biotransformation [4] | Bacterial Biotransformation [5] | Bacterial Biotransformation [6] | Bacterial Biotransformation [7] | Bacterial Biotransformation [8] | Bacterial Biotransformation [9] | Bacterial Biotransformation [10] | Bacterial Biotransformation [11] | Bacterial Biotransformation [12] | Bacterial Biotransformation [13] | Bacterial Biotransformation [14] | Bacterial Biotransformation [15] | Bacterial Biotransformation [16] | Bacterial Biotransformation [17] | Bacterial Biotransformation [19] | Bacterial Biotransformation [18]
CNS(=O)(=O)Cc1ccc2[nH]cc(CCN(C)C)c2c1.O=C(O)CCC(=O)O [SUMATRIPTAN SUCCINATE] | Compound NOT metabolized | – | Compound NOT metabolized | Compound NOT metabolized | Compound NOT metabolized | – | Compound NOT metabolized | Compound NOT metabolized | – | Compound NOT metabolized | Compound NOT metabolized | Compound metabolized | Compound NOT metabolized | Compound NOT metabolized | Compound NOT metabolized | Compound NOT metabolized | Compound NOT metabolized | – | –
CC(=O)CC(c1ccccc1)c1c(O)c2ccccc2oc1=O (stereo not drawn) [WARFARIN] | Compound NOT metabolized | Compound NOT metabolized | Compound metabolized | Compound NOT metabolized | Compound NOT metabolized | Compound NOT metabolized | Compound NOT metabolized | Compound NOT metabolized | Compound NOT metabolized | Compound NOT metabolized | Compound NOT metabolized | – | Compound NOT metabolized | Compound NOT metabolized | Compound NOT metabolized | Compound NOT metabolized | – | Compound NOT metabolized | Compound metabolized
Nc1c2c(nc3ccccc13)CCCC2 [TACRINE] | Compound NOT metabolized | – | Compound NOT metabolized | Compound NOT metabolized | Compound NOT metabolized | Compound NOT metabolized | – | Compound NOT metabolized | Compound NOT metabolized | Compound NOT metabolized | Compound NOT metabolized | – | – | Compound NOT metabolized | Compound NOT metabolized | Compound NOT metabolized | Compound NOT metabolized | Compound NOT metabolized | –
O=C(CCCN1CCC2(CC1)C(=O)NCN2c1ccccc1)c1ccc(F)cc1 [SPIPERONE] | Compound NOT metabolized | – | – | Compound NOT metabolized | Compound NOT metabolized | Compound NOT metabolized | Compound NOT metabolized | – | Compound NOT metabolized | Compound NOT metabolized | Compound NOT metabolized | Compound NOT metabolized | – | Compound NOT metabolized | Compound NOT metabolized | Compound NOT metabolized | Compound NOT metabolized | Compound NOT metabolized | Compound NOT metabolized
CCN(CC)CCNC(C(=O)OCCC(C)C)c1ccccc1.Cl.Cl (stereo not drawn) | Compound NOT metabolized | – | Compound NOT metabolized | Compound NOT metabolized | Compound NOT metabolized | – | Compound NOT metabolized | Compound NOT metabolized | – | Compound NOT metabolized | Compound NOT metabolized | Compound NOT metabolized | Compound NOT metabolized | Compound NOT metabolized | Compound NOT metabolized | Compound NOT metabolized | Compound NOT metabolized | – | –
O=C1CC2(CCCC2)CC(=O)N1CCCCN1CCN(c2ncccn2)CC1 [BUSPIRONE] | Compound NOT metabolized | Compound NOT metabolized | – | Compound NOT metabolized | Compound NOT metabolized | Compound NOT metabolized | Compound NOT metabolized | Compound NOT metabolized | Compound NOT metabolized | Compound NOT metabolized | Compound NOT metabolized | Compound NOT metabolized | – | Compound NOT metabolized | Compound NOT metabolized | Compound NOT metabolized | – | Compound NOT metabolized | Compound NOT metabolized

Continued, in another order:

Bacterial Biotransformation [1] | Bacterial Biotransformation [2] | Bacterial Biotransformation [3] | Bacterial Biotransformation [4] | Bacterial Biotransformation [5] | Bacterial Biotransformation [6] | Bacterial Biotransformation [7] | Bacterial Biotransformation [8] | Bacterial Biotransformation [9] | Bacterial Biotransformation [10] | Bacterial Biotransformation [11] | Bacterial Biotransformation [12] | Bacterial Biotransformation [13] | Bacterial Biotransformation [14] | Bacterial Biotransformation [15] | Bacterial Biotransformation [16] | Bacterial Biotransformation [17] | Bacterial Biotransformation [19] | SMILES | Bacterial Biotransformation [18]
Compound NOT metabolized | Compound NOT metabolized | Compound metabolized | Compound NOT metabolized | Compound NOT metabolized | Compound metabolized | Compound NOT metabolized | Compound metabolized | Compound metabolized | Compound NOT metabolized | Compound NOT metabolized | Compound NOT metabolized | Compound NOT metabolized | Compound metabolized | Compound NOT metabolized | Compound NOT metabolized | – | – | Cc1cn([C@H]2C[C@H](N=[N+]=[N-])[C@@H](CO)O2)c(=O)[nH]c1=O [ZIDOVUDINE] | –
Compound NOT metabolized | – | Compound NOT metabolized | Compound NOT metabolized | Compound NOT metabolized | Compound NOT metabolized | Compound NOT metabolized | Compound NOT metabolized | Compound NOT metabolized | Compound NOT metabolized | Compound NOT metabolized | Compound metabolized | Compound NOT metabolized | Compound NOT metabolized | Compound NOT metabolized | Compound NOT metabolized | – | Compound NOT metabolized | CCN1CCCC1CNC(=O)c1cc(S(N)(=O)=O)ccc1OC (stereo not drawn) [SULPIRIDE] | –
Compound NOT metabolized | Compound NOT metabolized | Compound NOT metabolized | Compound NOT metabolized | Compound NOT metabolized | Compound NOT metabolized | Compound NOT metabolized | Compound NOT metabolized | Compound NOT metabolized | Compound NOT metabolized | Compound NOT metabolized | Compound metabolized | Compound NOT metabolized | – | – | Compound NOT metabolized | – | Compound NOT metabolized | CNNCc1ccc(C(=O)NC(C)C)cc1 [PROCARBAZINE] | Compound metabolized
Compound NOT metabolized | Compound metabolized | – | Compound NOT metabolized | – | – | Compound NOT metabolized | Compound NOT metabolized | Compound NOT metabolized | Compound NOT metabolized | Compound NOT metabolized | Compound metabolized | Compound NOT metabolized | Compound NOT metabolized | Compound NOT metabolized | Compound NOT metabolized | Compound NOT metabolized | Compound NOT metabolized | CN1CC(=O)N2[C@H](c3ccc4c(c3)OCO4)c3[nH]c4ccccc4c3C[C@@H]2C1=O | –
